Measured values published in US11337921B2, “Multi-use torasemide composition” (VETOQUINOL SA, priority 2018, dated 2022).

Assay: Solubility of torasemide as a function of pH
Type: physicochemical
Settings: pH between about 2 and 7 (FIG. 1)
Excerpt: Moreover, the solubility of torasemide depends on the pH of the solution. The stability of torasemide in solution is, moreover, a function of the additives and excipients used in the composition. Thus, torasemide is insoluble at a pH between about 2 and 7 (FIG. 1).

Solubility of torasemide: insoluble
SMILES: Cc1cccc(Nc2ccncc2S(=O)(=O)NC(=O)NC(C)C)c1 [torasemide, 1-isopropyl-3-[(4-m-toluidino-3-pyridyl)sulfonyl]urea]
